Test results taken from the supplement of paper PMC10883282.
Where a name gives a salt, the structure may show the parent alone. ± gives the standard deviation of the averaged measurements.

System: SYO-1
Assay: relative viability vs DMSO control (72 h) (fraction); higher = more viable cells
Outline: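 After seeding at densities set for 80–90% confluence in 384-well plates, sarcoma cell lines waited 24 h before 2.5 µl of serially diluted compound was added. Source plates held 10 mM down to 0.0002 mM. Plates were incubated 72 h at 37 °C with 5% CO2, with 0.1% DMSO vehicle and a 5 µM positive control, and relative viability was taken from ATPLite as percent growth averaged over up to triplicate wells, with 1 set as full and 0 as none.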

| SMILES | relative viability (0.00017 µM) | relative viability (0.00051 µM) | relative viability (0.00152 µM) | relative viability (0.00457 µM) | relative viability (0.01372 µM) | relative viability (0.04115 µM) | relative viability (0.1235 µM) | relative viability (0.3704 µM) | relative viability (1.111 µM) | relative viability (3.333 µM) | relative viability (10 µM) |
| --- | --- | --- | --- | --- | --- | --- | --- | --- | --- | --- | --- |
| O=C(Nc1cnn2ccc(N3CCC[C@@H]3c3cc(F)ccc3F)nc12)N1CC[C@H](O)C1 [Larotrectinib] | 1.034 ± 0.0067 | 1.02 ± 0.021 | 0.979 ± 0.016 | 0.973 ± 0.047 | 0.946 ± 0.06 | 0.948 ± 0.063 | 0.926 ± 0.075 | 0.937 ± 0.043 | 0.885 ± 0.058 | 0.903 ± 0.062 | 0.875 ± 0.055 |
| C[C@@H]1COCCN1c1cc(-c2ccnn2C)c2ccnc(-c3ccn[nH]3)c2n1 | 0.9163 ± 0.0052 | 0.928 ± 0.028 | 0.911 ± 0.043 | 0.903 ± 0.06 | 0.799 ± 0.07 | 0.627 ± 0.044 | 0.415 ± 0.03 | 0.286 ± 0.018 | 0.199 ± 0.0027 | 0.116 ± 0.0028 | 0.0976 ± 0.0066 |
| CC(C)N1CCN(Cc2cnc(-c3cc(-c4cccc5[nH]ccc45)cc4[nH]ncc34)o2)CC1 [Nemiralisib] | 1.02 ± 0.013 | 0.981 ± 0.046 | 0.981 ± 0.036 | 0.974 ± 0.049 | 0.981 ± 0.025 | 0.991 ± 0.02 | 0.9659 ± 0.0068 | 0.968 ± 0.017 | 0.882 ± 0.025 | 0.697 ± 0.028 | -0.0515 ± 0.012 |
| COc1cccc2c1C(=O)c1c(O)c3c(c(O)c1C2=O)C[C@@](O)(C(=O)CO)C[C@@H]3O[C@H]1C[C@H](N)[C@H](O)[C@H](C)O1 [Doxorubicin Hydrochloride] | 0.967 ± 0.064 | 0.938 ± 0.048 | 0.899 ± 0.054 | 0.818 ± 0.06 | 0.549 ± 0.038 | 0.29 ± 0.025 | 0.175 ± 0.035 | 0.127 ± 0.015 | 0.0941 ± 0.01 | 0.0937 ± 0.025 | 0.0765 ± 0.011 |
| Nc1cc(C(F)(F)F)c(-c2cc(N3CCOCC3)nc(N3CCOCC3)n2)cn1 [Buparlisib] | 0.933 ± 0.025 | 0.939 ± 0.011 | 0.935 ± 0.028 | 0.931 ± 0.022 | 0.894 ± 0.043 | 0.878 ± 0.066 | 0.81 ± 0.075 | 0.739 ± 0.052 | 0.456 ± 0.0064 | 0.159 ± 0.0096 | 0.136 ± 0.005 |
| Cc1cc(Nc2ncnc3ccc(NC4=NC(C)(C)CO4)cc23)ccc1Oc1ccn2ncnc2c1 [Tucatinib] | 1.03 ± 0.024 | 1.04 ± 0.026 | 1.02 ± 0.015 | 1.01 ± 0.021 | 0.99 ± 0.027 | 0.981 ± 0.038 | 1.01 ± 0.022 | 0.97 ± 0.064 | 0.969 ± 0.019 | 0.959 ± 0.027 | 0.841 ± 0.041 |
| Cc1nc(-c2cn3c(n2)-c2ccc(-c4cnn(C(C)(C)C(N)=O)c4)cc2OCC3)n(C(C)C)n1 [Taselisib] | 0.9262 ± 0.0077 | 0.924 ± 0.029 | 0.924 ± 0.035 | 0.895 ± 0.051 | 0.864 ± 0.042 | 0.794 ± 0.053 | 0.759 ± 0.041 | 0.721 ± 0.046 | 0.684 ± 0.046 | 0.61 ± 0.034 | 0.476 ± 0.033 |
| CN1CCC(COc2cnc(-c3cccc(Cn4nc(-c5cccc(C#N)c5)ccc4=O)c3)nc2)CC1 [Tepotinib] | 1 ± 0.042 | 0.983 ± 0.042 | 0.974 ± 0.063 | 0.919 ± 0.061 | 0.946 ± 0.05 | 0.912 ± 0.038 | 0.916 ± 0.031 | 0.931 ± 0.06 | 0.884 ± 0.037 | 0.824 ± 0.033 | 0.608 ± 0.055 |
| CNC(=O)c1cc(Oc2ccc(NC(=O)Nc3ccc(Cl)c(C(F)(F)F)c3)c(F)c2)ccn1 [Regorafenib] | 1.02 ± 0.039 | 1.022 ± 0.0037 | 1.04 ± 0.05 | 1.01 ± 0.035 | 1.03 ± 0.02 | 0.999 ± 0.05 | 0.954 ± 0.065 | 0.755 ± 0.038 | 0.572 ± 0.022 | 0.476 ± 0.016 | 0.217 ± 0.016 |
| CCCS(=O)(=O)Nc1ccc(F)c(C(=O)c2c[nH]c3ncc(-c4ccc(Cl)cc4)cc23)c1F [Vemurafenib] | 0.954 ± 0.056 | 0.955 ± 0.048 | 0.963 ± 0.04 | 0.966 ± 0.061 | 0.975 ± 0.051 | 0.967 ± 0.043 | 0.974 ± 0.024 | 1 ± 0.027 | 0.986 ± 0.042 | 0.95 ± 0.076 | 0.608 ± 0.072 |
| COc1c(OCCCN2CCOCC2)ccc2c1N=C(NC(=O)c1cnc(N)nc1)N1CCN=C21 [Copanlisib] | 1 ± 0.011 | 0.945 ± 0.023 | 0.911 ± 0.051 | 0.79 ± 0.06 | 0.754 ± 0.041 | 0.693 ± 0.02 | 0.651 ± 0.052 | 0.52 ± 0.02 | 0.374 ± 0.012 | 0.171 ± 0.0084 | 0.0829 ± 0.006 |
| CC(=O)Nc1cccc(-n2c(=O)n(C3CC3)c(=O)c3c(Nc4ccc(I)cc4F)n(C)c(=O)c(C)c32)c1 [Trametinib] | 0.997 ± 0.025 | 0.983 ± 0.057 | 0.925 ± 0.031 | 0.889 ± 0.034 | 0.865 ± 0.027 | 0.832 ± 0.056 | 0.765 ± 0.05 | 0.735 ± 0.038 | 0.687 ± 0.061 | 0.687 ± 0.037 | 0.671 ± 0.048 |
| COCc1c(-c2cc3cc(C)cc(OC)c3s2)c2c(N)ncnn2c1CN1CCNC(=O)C1 [Rogaratinib] | 1.01 ± 0.048 | 0.974 ± 0.054 | 0.952 ± 0.059 | 0.924 ± 0.067 | 0.84 ± 0.059 | 0.765 ± 0.082 | 0.634 ± 0.05 | 0.613 ± 0.071 | 0.6 ± 0.057 | 0.568 ± 0.056 | 0.464 ± 0.06 |
| COc1cc2/c(=N/c3ccc(Br)cc3F)nc[nH]c2cc1OCC1CCN(C)CC1 [Vandetanib] | 0.926 ± 0.02 | 0.924 ± 0.043 | 0.927 ± 0.028 | 0.899 ± 0.067 | 0.889 ± 0.041 | 0.848 ± 0.034 | 0.793 ± 0.011 | 0.65 ± 0.015 | 0.4003 ± 0.0022 | 0.0998 ± 0.016 | -0.00567 ± 0.0018 |
